Read-outs that look alike come from different tables or passages of the source.
Tests used:
[1] = biological target: Beta Secretase enzyme (BACE) (Homo sapiens, UniProt P56817); test: In vitro enzymatic BACE FRET (fluorescence resonance energy transfer) assay; format: biochemical;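 further: fluorescence read after 1 h with 50 nM quenched peptide substrate spanning the BACE cleavage site, in pH 4.2 acetate buffer containing 10% DMSO and nonionic detergent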
[2] = tested on: Aβ40 in conditioned medium of cells stably expressing Amyloid Precursor Protein (APP); test: In vitro BACE cell-based assay (Aβ40 in conditioned medium, sandwich ELISA);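 further: compounds added as a dilution series, secreted peptide quantified by europium time-resolved fluorescence readout, potency fitted from percent of control versus compound concentration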
[3] = Table 1, read-out: BACE1 FRET assay
[4] = Homo sapiens, HEK293, Table 1, HEK cells, read-out: HEK cell assay
[5] = BACE enzyme FRET assay, read-out: BACE1 FRET assay (IC50)
[6] = Homo sapiens, HEK293, HEK cells, cell-based assay, read-out: HEK cell assay (IC50)
[7] = BACE enzyme assay, read-out: BACE1 FRET assay (IC50)
[8] = Homo sapiens, HEK293, HEK cell-based assay, IC50's in uM, read-out: HEK cell assay
[9] = Homo sapiens, HEK293, cell-based assay, HEK cells, IC50's in uM, read-out: HEK cell assay

Chain of Beta Secretase enzyme (BACE) (P56817 46-501): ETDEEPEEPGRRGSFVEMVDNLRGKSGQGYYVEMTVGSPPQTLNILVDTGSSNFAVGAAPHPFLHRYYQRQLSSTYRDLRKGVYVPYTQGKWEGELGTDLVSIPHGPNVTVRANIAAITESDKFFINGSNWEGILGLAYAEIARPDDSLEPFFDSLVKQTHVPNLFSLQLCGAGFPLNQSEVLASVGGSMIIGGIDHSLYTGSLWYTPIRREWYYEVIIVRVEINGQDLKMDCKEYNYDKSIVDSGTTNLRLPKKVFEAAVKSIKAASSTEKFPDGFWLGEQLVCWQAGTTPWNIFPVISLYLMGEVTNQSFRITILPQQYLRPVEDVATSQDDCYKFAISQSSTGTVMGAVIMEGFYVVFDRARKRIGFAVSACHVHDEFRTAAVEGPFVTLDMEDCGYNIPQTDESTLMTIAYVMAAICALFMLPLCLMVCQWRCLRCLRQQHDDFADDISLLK

Structure (SMILES)	IC50 [1, 5]	IC50 [2, 6]	also measured
COCC(=O)N[C@@H](Cc1ccc(F)c(Cl)c1)[C@H](O)CN[C@H]1CC2(CCC2)Oc2ncc(CC(C)(C)C)cc21 [compound 351]			IC50 [1, 3]: 0.00275 µM; IC50 [2, 4]: 0.0123 µM
CC(=O)N[C@@H](Cc1ccccc1)[C@H](O)CN[C@H]1CC2(CCC2)Oc2ncc(CC3(C(F)(F)F)CC3)cc21 [compound 318]			IC50 [1, 3]: 0.0347 µM; IC50 [2, 4]: 0.085 µM
CC(=O)N[C@@H](Cc1cccc(F)c1)[C@H](O)CN[C@H]1CC2(CCC2)Oc2ncc(C[C@@H](C)C(F)(F)F)cc21 [compound 315]			IC50 [1, 3]: 0.00611 µM; IC50 [2, 4]: 0.00943 µM
CC(=O)NC(Cc1cccc(F)c1)C(O)CNC1CC2(CC(O)C2)Oc2ncc(CC(C)(C)C)cc21 [compound 231, N-((1S,2R)-3-(((1s,3S,4′S)-6′-(2,2-dimethylpropyl)-3-hydroxy-3′,4′-dihydrospiro[cyclobutane-1,2′-pyrano[2,3-b]pyridin]-4′-yl)amino)-1-((3-fluorophenyl)methyl)-2-hydroxypropyl)acetamide]	0.00404 µM	0.00304 µM	
CC(=O)N[C@@H](Cc1ccc(F)c(Cl)c1)[C@H](O)CN[C@H]1CC2(CCC2)Oc2ncc(CC(C)(C)C(F)F)cc21 [compound 215]	0.00705 µM	0.0264 µM	
CC(=O)N[C@@H](Cc1cc(Cl)c2c(c1)OCO2)[C@H](O)CN[C@H]1CC2(CCC2)Oc2ncc(CC(C)(C)C)cc21 [compound 207]	0.00663 µM	0.0142 µM	
CC(=O)N[C@@H](Cc1ccc2c(c1)OCO2)[C@H](O)CN[C@H]1CC2(CCC2)Oc2ncc(C[C@H](C)C(F)(F)F)cc21 [compound 320]			IC50 [1, 3]: 0.155 µM; IC50 [2, 4]: 0.12 µM
CC(=O)N[C@@H](Cc1ccc2c(c1)OCO2)[C@H](O)CN[C@H]1CC2(CCC2)Oc2ncc(CC3(C(F)(F)F)CC3)cc21 [compound 312]	0.0617 µM	0.197 µM	
CC(=O)NC(Cc1ccc(F)cc1)C(O)CNC1CC2(CCC2)Oc2ncc(CC(C)C(F)F)cc21 [compound 198, N-((1S,2R)-3-(((4′S)-6′-((2S)-3,3-difluoro-2-methylpropyl)-3′4′-dihydrospiro[cyclobutane-1,2′-pyrano[2,3-b]pyridin]-4′-yl)amino)-1-((4-fluorophenyl)methyl)-2-hydroxypropyl)acetamide]	0.029 µM	0.0321 µM	
CO[C@H](C)C(=O)N[C@@H](Cc1ccc(F)cc1)[C@H](O)CN[C@H]1C[C@]2(C[C@H](O)C2)Oc2ncc(CC(C)C)cc21 [compound 250, (2R)—N-((1S,2R)-1-((4-fluorophenyl)methyl)-2-hydroxy-3-(((1s,3S,4′S)-3-hydroxy-6′-(2-methylpropyl)-3′,4′-dihydrospiro[cyclobutane-1,2′-pyrano[2,3-b]pyridin]-4′-yl)amino)propyl)-2-(methyloxy)propanamide]	0.0128 µM		IC50 ([2]; HEK cells, cell-based assay, read-out: HEK cell assay (IC50)): 0.0273 µM
CC(=O)N[C@@H](Cc1cccc(F)c1)[C@H](O)CN[C@H]1CC2(CCC2)Oc2ncc(CC(C)(C)C(F)F)cc21 [compound 217]	0.00292 µM	0.00298 µM	
CO[C@H](C)C(=O)N[C@@H](Cc1ccc(F)cc1)[C@H](O)CN[C@H]1CC2(CCC2)Oc2ncc(CC(C)(C)C(F)(F)F)cc21 [compound 75]		0.0199 µM	IC50 [1, 7]: 0.00668 µM
CO[C@H](C)C(=O)N[C@@H](Cc1ccc2c(c1)OC(F)(F)O2)[C@H](O)CN[C@H]1CC2(CCC2)Oc2ncc(CC(C)(C)C)cc21 [compound 295]	0.0969 µM	1.33 µM	
CNc1nc(CC(C)(C)C)cc2c1OC1(CCC1)C[C@@H]2NC[C@@H](O)[C@H](Cc1cccc(F)c1)NC(=O)COC [compound 148]		0.00654 µM	IC50 [1, 7]: 0.0387 µM
COc1cc(C[C@H](NC(C)=O)[C@H](O)CN[C@H]2CC3(CCC3)Oc3ncc(CC(C)(C)C(F)F)cc32)ccc1Cl [compound 216]	0.016 µM	0.0249 µM	
CC(=O)Nc1cnc2c(c1)[C@@H](NC[C@@H](O)[C@H](Cc1ccc(F)cc1)NC(C)=O)CC1(CCC1)O2 [compound 83, N-((1S,2R)-3-(((4′S)-6′-(acetylamino)-3′,4′-dihydrospiro[cyclobutane-1,2′-pyrano[2,3-b]pyridin]-4′-yl)amino)-1-((4-fluorophenyl)methyl)-2-hydroxypropyl)acetamide]		> 10 µM	IC50 [1, 7]: 0.593 µM
CC(=O)N[C@@H](Cc1cc(F)c2c(c1)OCO2)[C@@H](O)CN[C@H]1CC2(CCC2)Oc2ncc(CC(C)(C)C)cc21 [compound 305, N-((1S,2S)-3-(((4′S)-6′-(2,2-dimethylpropyl)-3′,4′-dihydrospiro[cyclobutane-1,2′-pyrano[2,3-b]pyridin]-4′-yl)amino)-1-((7-fluoro-1,3-benzodioxol-5-yl)methyl)-2-hydroxypropyl)acetamide]	0.0379 µM	0.058 µM	
CNc1nc(CC(C)(C)C)cc2c1OC1(CCC1)C[C@@H]2NC[C@@H](O)[C@H](Cc1ccc2c(c1)OCO2)NC(C)=O [compound 126]		0.0091 µM	IC50 [1, 7]: 0.0484 µM
CC(C)(C)Cc1cnc2c(c1)[C@@H](NC[C@@H](O)[C@H](Cc1cccc(F)c1)NC(=O)C1CN(C3CCC3)C(=O)C1(C)C)CC1(CCC1)O2 (some centres unmarked) [compound 66]		1.11 µM	IC50 [1, 7]: 0.0436 µM

Structure (SMILES)	IC50 [1, 5]	IC50 [2, 6]	also measured
C[C@@H](O)C(=O)N[C@@H](Cc1ccc(F)cc1)[C@H](O)CN[C@H]1CC2(CCC2)Oc2ncc(CC(C)(C)C)cc21 [compound 157]		0.0217 µM	IC50 [1, 7]: 0.0151 µM
COCC(=O)N[C@@H](Cc1ccc2c(c1)OCO2)[C@H](O)CN[C@H]1CC2(CCC2)Oc2ncc(C[C@H](C)C(F)(F)F)cc21 [compound 339]			IC50 [1, 3]: 0.0437 µM; IC50 [2, 4]: 0.126 µM
COCC(=O)N[C@@H](Cc1ccc2c(c1)OCO2)[C@H](O)CN[C@H]1CC2(CCC2)Oc2ncc(CC(C)(F)F)cc21 [compound 276]	0.076 µM	0.0872 µM	
COCC(=O)NC(Cc1ccc2c(c1)OCO2)C(O)CNC1CC2(CC(C)C2)Oc2ncc(CC(C)C)cc21 [compound 133, N-((1S,2R)-1-(1,3-benzodioxol-5-ylmethyl)-2-hydroxy-3-(((1s,3R,4′S)-3-methyl-6′-(2-methylpropyl)-3′,4′-dihydrospiro[cyclobutane-1,2′-pyrano[2,3-b]pyridin]-4′-yl)amino)propyl)-2-(methyloxy)acetamide]		0.143 µM	IC50 [1, 7]: 0.0398 µM
CO[C@H](C)C(=O)N[C@@H](Cc1ccc2c(c1)OCO2)[C@H](O)CN[C@H]1CC2(CCC2)Oc2ncc(CC(C)(C)CF)cc21 [compound 190]	0.0238 µM	0.0432 µM	
CC(C)(C)Cc1cnc2c(c1)[C@@H](NC[C@@H](O)[C@H](Cc1cccc(F)c1)NC(=O)CCl)CC1(CCC1)O2 [compound 107]		0.0224 µM	IC50 [1, 7]: 0.00507 µM
CC(=O)NC(Cc1ccc(F)cc1)C(O)CNC1CC2(CC(C#N)C2)Oc2ncc(CC(C)(C)C)cc21 [compound 262, N-((1S,2R)-3-(((1r,3S,4′S)-3-cyano-6′-(2,2-dimethylpropyl)-3′,4′-dihydrospiro[cyclobutane-1,2′-pyrano[2,3-b]pyridin]-4′-yl)amino)-1-((4-fluorophenyl)methyl)-2-hydroxypropyl)acetamide]	0.0465 µM		
COCC(=O)N[C@@H](Cc1cccc(-c2ccccn2)c1)[C@H](O)CN[C@H]1CC2(CCC2)Oc2ncc(CC(C)(C)C)cc21 [compound 841, N-((1S,2R)-3-(((4′S)-6′-(2,2-dimethylpropyl)-3′,4′-dihydrospiro[cyclobutane-1,2′-pyrano[2,3-b]pyridin]-4′-yl)amino)-2-hydroxy-1-(3-(2-pyridinyl)benzyl)propyl)-2-methoxyacetamide]			IC50 [2, 8]: 0.018 µM
CC(=O)N[C@@H](Cc1cccc(F)c1)[C@H](O)CN[C@H]1CC2(CCC2)Oc2ncc([C@@H](F)[C@H](C)C(F)(F)F)cc21 [compound 323]			IC50 [1, 3]: 0.365 µM
CCO[C@H](C)C(=O)N[C@@H](Cc1cccc(-c2nccs2)c1)[C@H](O)CN[C@H]1CC2(CCC2)Oc2ncc(CC(C)(C)C)cc21 [Example 894]			IC50 [2, 9]: 0.018 µM
C#Cc1ccc(C[C@H](NC(=O)COC)[C@H](O)CN[C@H]2CC3(CCC3)Oc3ncc(CC(C)(C)C)cc32)cc1 [Example 885]			IC50 [2, 9]: 0.099 µM
CCO[C@@H](C)C(=O)N[C@@H](Cc1cccc(-c2nccs2)c1)[C@H](O)CN[C@H]1CC2(CCC2)Oc2ncc(CC(C)(C)C)cc21 [Example 893]			IC50 [2, 9]: 0.012 µM
COC(C)C(=O)NC(Cc1ccc2c(c1)OCO2)C(O)CNC1CC2(CC(O)C2)Oc2cnccc21 [compound 245, (2R)—N-((1S,2R)-1-(1,3-benzodioxol-5-ylmethyl)-2-hydroxy-3-(((1r,3R,4′S)-3-hydroxy-3′,4′-dihydrospiro[cyclobutane-1,2′-pyrano[2,3-c]pyridin]-4′-yl)amino)propyl)-2-(methyloxy)propanamide]	40 µM		
COCC(=O)N[C@@H](Cc1cccc(-c2nccs2)c1F)[C@H](O)CN[C@H]1CC2(CCC2)Oc2ncc(CC(C)(C)C)cc21 [compound 908]			IC50 [2, 9]: 0.1 µM
C#Cc1cccc(C[C@H](NC(=O)COC)[C@H](O)CN[C@H]2CC3(CCC3)Oc3ncc(CC(C)(C)C)cc32)c1F [compound 911]			IC50 [2, 9]: 0.144 µM
COCC(=O)N[C@@H](Cc1ccc(F)cc1)[C@H](O)CN[C@H]1C[C@]2(C[C@@H](C#N)C2)Oc2ncc(CC(C)(C)C)cc21 [compound 261, N-((1S,2R)-3-(((1r,3S,4′S)-3-cyano-6′-(2,2-dimethylpropyl)-3′,4′-dihydrospiro[cyclobutane-1,2′-pyrano[2,3-b]pyridin]-4′-yl)amino)-1-((4-fluorophenyl)methyl)-2-hydroxypropyl)-2-(methyloxy)acetamide]	0.0389 µM		
COCC(=O)N[C@@H](Cc1cccc(-c2nc(C)cs2)c1)[C@H](O)CN[C@H]1CC2(CCC2)Oc2ncc(CC(C)(C)C)cc21 [compound 758]			IC50 [2, 8]: 0.014 µM
COCC(=O)N[C@@H](Cc1cc(Br)cc(OC)c1)[C@H](O)CN[C@H]1CC2(CCC2)Oc2ncc(CC(C)(C)C)cc21 [compound 917]			IC50 ([1]; BACE enzyme assay, IC50's in uM, read-out: BACE1 FRET assay): 0.014 µM

Source: US8163909B2, “Substituted hydroxyethyl amine compounds as beta-secretase modulators and methods of use” (Amgen Inc., priority 2007, dated 2012)
